Assay results from PubChem BioAssay AID504440 (Sanford-Burnham Center for Chemical Genomics, 2011).
Values joined by “and” are separate entries in the source; they are usually repeats but may differ in a detail not shown here. Equal values may be shown once. Active and inactive are the calls of the source.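 How the source made its calls: active means mean IC50 below 5 µM in the confirmatory dose response test; inactive means the rest.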

Each compound was assayed on AML12 mouse hepatocytes, BODIPY lipid droplet imaging (assay: inhibitors of hepatocyte lipid droplet formation, SAR follow-up, imaging, AML12 mouse hepatocytes, set 2 (AID 504440)).

Row | Compound | IC50
1 | CCOc1ccc(CCNC(=O)Cn2nc(C)c3c(C)n(-c4ccccc4)nc3c2=O)cc1OCC | 187 nM
2 | COc1ccc(CNC(=O)c2ccc(N3CCOCC3)s2)cc1OC | > 10000 nM (inactive)
3 | CCn1c(C(=O)Nc2ccc3c(c2)OCO3)cc2ccsc21 | > 10000 nM (inactive)
4 | CCn1c(C(=O)NCc2ccc3c(c2)OCO3)cc2sccc21 | > 10000 nM (inactive)
5 | CCOc1cc(CCNC(=O)CSc2cc(=O)n(C)c3ccccc23)ccc1OC | 6380 nM (inactive)
6 | CCOc1cc(CCNC(=O)c2ccc(N3CCOCC3)s2)ccc1OC | 2340 nM
7 | CCOc1ccc(CCNC(=O)c2cc3ccccc3n2C)cc1OC | 804 nM
8 | COc1ccc(CCNC(=O)c2cc(-c3ccccc3)c(N3CCOCC3)s2)c(OC)c1OC | 88.3 nM
9 | CCOc1ccc(CCNC(=O)CSc2cc(=O)n(C)c3ccccc23)cc1OC | 3030 nM
10 | CCOc1ccc(CCNC(=O)c2cc3sccc3n2CC)cc1OCC | 39.9 nM
11 | Cn1c(=O)cc(SCC(=O)Nc2ccc3c(c2)OCO3)c2ccccc21 | > 10000 nM (inactive)
12 | CCOc1ccc(CCNC(=O)c2cc(-c3ccccc3)c(N3CCOCC3)s2)cc1OC | 21.6 nM
13 | CCOc1ccc(CCNC(=O)c2cc3sc(Cl)cc3n2C)cc1OCC | 69.7 nM
14 | CCOc1cc(CCNC(=O)c2cc3sccc3n2CC)ccc1OC | 63 nM
15 | COc1ccc(CCNC(=O)c2cc3sc(Cl)cc3n2C)cc1OC | 7020 nM (inactive)
16 | COc1cc(CNC(=O)CSc2cc(=O)n(C)c3ccccc23)cc(OC)c1OC | > 10000 nM (inactive)
17 | COc1ccc(CCNC(=O)c2cc3sccc3n2C)cc1OC | 8370 nM (inactive)
18 | CCOc1cc(CCNC(=O)c2cc3ccsc3n2C)ccc1OC | 641 nM
19 | CCOc1cc(CCNC(=O)c2cc3sccc3[nH]2)ccc1OC | 2190 nM
20 | COc1ccc(CCNC(=O)CSc2cc(=O)n(C)c3ccccc23)cc1OC | > 10000 nM (inactive)
21 | COc1ccc(CCNC(=O)c2cc3ccccc3n2C)cc1OC | > 10000 nM (inactive)
22 | CCOc1ccc(CCNC(=O)CSc2cc(=O)n(CC)c3ccccc23)cc1OCC | 987 nM
23 | CCOc1ccc(CCNC(=O)c2cc3ccsc3n2CC)cc1OC | 501 nM
24 | O=C(NCCc1ccc2c(c1)OCO2)c1cc2sccc2[nH]1 | > 10000 nM (inactive)
25 | Cn1c(C(=O)Nc2ccc3c(c2)OCO3)cc2ccsc21 | > 10000 nM (inactive)
26 | CCOc1cc(CCNC(=O)c2cc3ccccc3n2C)ccc1OC | 1040 nM

Row | Compound | IC50
27 | CCOc1ccc(CCNC(=O)COC(=O)c2ccc(OC)c(OC)c2OC)cc1OCC | 37.5 nM
28 | CCOc1ccc(CCNC(=O)COc2cc(=O)n(C)c3ccccc23)cc1OCC | 945 nM
29 | COc1cc(CNC(=O)c2cc3ccsc3n2C)cc(OC)c1OC | > 10000 nM (inactive)
30 | O=C(NCCc1ccc2c(c1)OCO2)c1cc(-c2ccccc2)c(N2CCOCC2)s1 | 3260 nM
31 | CCOc1ccc(CCNC(=O)c2cc3ccsc3n2C)cc1OC | 1090 nM
32 | CCn1c(C(=O)NCc2ccc(OC)c(OC)c2)cc2ccsc21 | > 10000 nM (inactive)
33 | COc1ccc(CNC(=O)c2cc3ccsc3n2C)cc1OC | > 10000 nM (inactive)
34 | CCOc1ccc(CCNC(=O)CCC(=O)N2CCSc3ccccc32)cc1OCC | 69.3 nM
35 | CCOc1ccc(CCNC(=O)CN2CCN(Cc3ccccc3C)C2=O)cc1OCC | 344 nM
36 | CCOc1cc(CCNC(=O)COc2cc(=O)n(C)c3ccccc23)ccc1OC | 8930 nM (inactive)
37 | CCOc1ccc(CCNC(=O)CCC(=O)N2CCOc3ccccc32)cc1OCC | 199 nM
38 | CCOc1ccc(CCNC(=O)Cn2cccc2C(=O)c2ccccc2)cc1OCC | 418 nM
39 | CCOc1ccc(CCNC(=O)C2CC=CCC2C(=O)OC(C)C)cc1OCC (stereo not drawn) | 260 nM
40 | CCn1c(C(=O)NCCc2ccc(OC)c(OC)c2)cc2ccsc21 | 2150 nM
41 | CCOc1ccc(CCNC(=O)Cn2ncn3nc(-c4ccc(OC)cc4)cc3c2=O)cc1OCC | 129 nM
42 | COc1ccc(NC(=O)c2cc3ccsc3n2C)cc1OC | > 10000 nM (inactive)
43 | CCn1c(C(=O)Nc2ccc(OC)c(OC)c2)cc2sccc21 | > 10000 nM (inactive)
44 | CCn1c(C(=O)NCc2cc(OC)c(OC)c(OC)c2)cc2ccsc21 | 3020 nM
45 | CCOc1ccc(CCNC(=O)c2nnc(Cc3ccc(F)cc3)o2)cc1OCC | 348 nM
46 | CCOc1ccc(CCNC(=O)COC(=O)c2cc(OC)cc(OC)c2)cc1OCC | 1090 nM
47 | CCn1c(C(=O)Nc2ccc3c(c2)OCO3)cc2sccc21 | > 10000 nM (inactive)
48 | CCOc1ccc(CCNC(=O)COC(=O)c2cc(OC)c(OC)c(OC)c2)cc1OCC | 104 nM
49 | CCOc1ccc(CCNC(=O)CCC(=O)N2CCOc3ccc(C)cc32)cc1OCC | 235 nM
50 | CCOc1ccc(CCNC(=O)c2cc3ccsc3n2CC)cc1OCC | 77.9 nM
51 | CCOc1ccc(CCNC(=O)c2ccc(N3CCOCC3)s2)cc1OCC | 384 nM
52 | CCOc1ccc(CCNC(=O)c2cc(-c3ccccc3)c(N3CCOCC3)s2)cc1OCC | 6.1 nM and 6.39 nM

Row | Compound | IC50
53 | CCOc1ccc(CCNC(=O)CSc2cc(=O)n(C)c3cc(Cl)ccc23)cc1OCC | 504 nM
54 | Cn1c(C(=O)NCCc2ccc3c(c2)OCO3)cc2ccccc21 | > 10000 nM (inactive)
55 | CCOc1ccc(CCNC(=O)Cn2cccc2C(=O)c2ccccc2C)cc1OCC | 349 nM
56 | CCn1c(C(=O)NCc2cc(OC)c(OC)c(OC)c2)cc2sccc21 | 4820 nM
57 | COc1ccc(CNC(=O)c2cc(-c3ccccc3)c(N3CCOCC3)s2)cc1OC | 101 nM
58 | Cn1c(=O)cc(SCC(=O)NCCc2ccc3c(c2)OCO3)c2ccccc21 | > 10000 nM (inactive)
59 | COc1ccc(CCNC(=O)COC(=O)c2cc(OC)c(OC)cc2OC)cc1OC | > 10000 nM (inactive)
60 | O=C(NCCc1ccc2c(c1)OCO2)c1ccc(N2CCOCC2)s1 | > 10000 nM (inactive)
61 | CCOc1ccc(CCNC(=O)CCc2nc(-c3ccc(OC)cc3)no2)cc1OCC | 206 nM
62 | CCOc1ccc(CCNC(=O)CCc2nnc3ccc(N4CCCCC4)nn23)cc1OCC | 199 nM
63 | COc1ccc(CNC(=O)CSc2cc(=O)n(C)c3ccccc23)cc1OC | > 10000 nM (inactive)
64 | CCn1c(C(=O)NCCc2ccc(OC)c(OC)c2)cc2sc(Cl)cc21 | 1350 nM
65 | CCOc1ccc(CCNC(=O)c2cc3sccc3[nH]2)cc1OCC | 639 nM
66 | CCOc1ccc(CCNC(=O)c2cc3sccc3n2CC)cc1OC | 261 nM
67 | CCOc1ccc(CCNC(=O)CCOc2cc(C)ccc2C)cc1OCC | 67.8 nM
68 | CCOc1cc(CCNC(=O)c2cc(-c3ccccc3)c(N3CCOCC3)s2)ccc1OC | 42.8 nM
69 | CCn1c(C(=O)Nc2ccc(OC)c(OC)c2)cc2ccsc21 | > 10000 nM (inactive)
70 | CCOc1ccc(CCNC(=O)CSc2cc(=O)n(C)c3ccccc23)cc1OCC | 564 nM and 526 nM
71 | Cn1c(C(=O)NCc2ccc3c(c2)OCO3)cc2ccsc21 | > 10000 nM (inactive)
72 | CCOc1ccc(CCNC(=O)CCc2nnc3ccc(N4CCCC4)nn23)cc1OCC | 771 nM
73 | Cn1c(=O)cc(SCC(=O)NCc2ccc3c(c2)OCO3)c2ccccc21 | > 10000 nM (inactive)
74 | CCOc1ccc(CCNC(=O)CN2C(=O)c3cccnc3Oc3ccc(C)cc32)cc1OCC | 130 nM
75 | CCOc1ccc(CCNC(=O)c2cc3sccc3n2C)cc1OCC | 124 nM
76 | COc1ccc(CCNC(=O)c2cc(-c3ccccc3)c(N3CCOCC3)s2)cc1OC | 271 nM and 186 nM
77 | CCOc1ccc(CCNC(=O)c2cc3ccsc3n2C)cc1OCC | 138 nM
78 | COc1ccc(CCNC(=O)Cn2cccc2C(=O)c2ccccc2C)cc1OC | > 10000 nM (inactive)
